Paper PMC9343080, “Distribution- and Metabolism-Based Drug Discovery: A Potassium-Competitive Acid Blocker as a Proof of Concept” (Research, 2022)
Where two headings read alike, the source gives them in different places.

Columns and labels:
[1] = pKa measurement (pH-metric method); type: physicochemical
Description: Procedure for pKa and log D7.4 measurements. The pKa was determined using pH-metric Method from DMSO Stock Solution. Procedure for Log D determinations: 15 µL of stock solutions of test compounds and control compound was placed in order into their proper 96-well rack. 500 µL of PBS saturated 1-octanol was added into each vial of the cap-less Log D plate followed by the addition of 500 µL of 1-octanol saturated PBS (pH 7.4). One stir stick was added to each vial and a molded PTFE/Silicone plug was used to seal each vial. Then the Log D plate was transferred to the Eppendorf Thermomixer Comfort plate shaker and shaken at 25°C at 1,100 RPM for 1 hour. After completion of 1 hour, plugs were removed and the stir sticks were removed using a big magnet. The samples were then centrifuged at 25°C at 20,000 g for 20 minutes to separate the phases, and pipette and syringe were used to remove the upper (1-octanol) and lower (buffer) phases to the empty tubes, respectively. Aliquots of 5 µL were taken from upper phases followed by addition of 495 µL of a mixture of H2O and acetonitrile (1:1 in v/v). Vortex for 1 minute, and then aliquots of 50 µL were taken from the diluent followed by addition of 450 µL of a mixture of H2O and acetonitrile (1:1 in v/v). And aliquots of 50 µL were taken from lower phases followed by addition of 450 µL of a mixture of H2O and acetonitrile (1:1 in v/v). 200 μL of diluent was transferred to a new 96-well plate for LC-MS/MS analysis. The dilution factor was changed according to the Log D value and the LC-MS signal response. The concentrations of test compound and control compound in 1-octanol/buffer solution were evaluated by LC-MS/MS. The Log D values of the test compounds and control compound were calculated as follows: […]

[2] = Two-week repeat-dose toxicity test; type: in vivo, SD rats
Description: For acute toxicity test: 12 SPF SD rats were randomly divided into three groups and received a single dose of SH-337 (1000 mg/kg, i.g.), and the animal tolerance was recorded within 2 hours. For two-week repeat-dose toxicity test: 20 SPF SD rats were randomly divided into two groups and received SH-337 (100, 200 mg/kg, i.g.) once daily for 14 days. SH-337 was dissolved in 0.5% CMC-Na. The body weight of the rats was recorded every 7 days. During the experiment, clinical parameters included apparent changes in the mental state, skin or fur, behavior, genitals, mucous membranes, respiration, stool consistency, glandular organ secretions, mortality, or other toxic results that were recorded. In addition, animal bodyweight and food intake were assessed once weekly over the study period. At the end of the experiment, the rats were sacrificed, and the serum hematological parameters and serum biochemistry parameters were recorded.

[3] = Human microsomal stability; type: in vitro ADME
Description: The in vitro metabolic stabilities of selected compounds were performed using human and rat liver microsomes in triplicate as described previously.

[4] = biological target: Na+, K+-ATPase; test: In vitro Na+, K+-ATPase activity; type: biochemical
[5] = tested on: histamine-stimulated gastric acid secretion; test: In vivo inhibition of histamine-stimulated acid secretion in anesthetized rats; set-up: species or system rat; conditions: for Total acid output, histamine-stimulated model / Inhibition (%), histamine-stimulated model: rats
Description: 60 SPF SD rats weighing 180-220 g were randomly divided into […]: sham, model, SH-337 (2 mg/kg and 4 mg/kg), vonoprazan (2 mg/kg), males and females are equally divided. Fasting for 24 hours, model and sham groups were treated with deionized water. Drugs and vehicle were given through intragastric administration to rats before anesthesia. 1 h after administration, pylorus was ligated. 5 min later, histamine 2HCl (30 mg/10 mL/kg) was injected subcutaneously. At 3 h after histamine administration, the rats were killed by CO2 asphyxiation. The gastric contents were collected in a 10 mL centrifuge tube after removing their stomachs. Centrifuge at 3000 g for 10 min, and then, determine the total acid output during a 3 h period by 0.1 M NaOH [52, 53]. %Inhibition = (average of modelacid–drugacid)/average of modelacid × 100%.

[6] = Metabolite identification and profiling in rat liver microsomes; type: in vitro ADME; conditions: SH-337 10 µM, 30 min incubation
Description: Liver microsomes (1 mg protein/mL) were suspended in phosphate buffer (50 mM, pH 7.4) containing MgCl2 (6 mM). […] The reactions were initiated at 37°C by the addition of 1 mM NADPH and terminated at 30 min or 60 min (30 min for rat; 60 min for human). The samples were precipitated with acetonitrile at 1 : 2 and further centrifuged; the supernatants were dried with a stream of N2 gas. The residues were reconstituted with 300 μL of 10% acetonitrile/H2O (0.1% TFA) and analyzed by LC-MS/MS. The assays were pursued under the conditions provided in Supplementary Tables S4, S6, S7, and S8.

CNCc1cc(-c2ccc(OCC3CC3)cc2F)n(S(=O)(=O)c2cccnc2)c1.Cl.Cl [SH-337, 1-(5-(4-(cyclopropylmethoxy)-2-fluorophenyl)-1-(pyridin-3-ylsulfonyl)-1H-pyrrol-3-yl)-N-methylmethanamine dihydrochloride]
pKa [1]: 9.03 | pKa ([1]; read-out: pKa): 9 | NOAEL, fold higher than vonoprazan ([2]; 100 mg/kg vs. 30 mg/kg): 3.3 fold | NOAEL at 14 days ([2]; SD, rat, in vivo, po, no observed adverse effect level (NOAEL)): ≥ 100 mg/kg | repeated-dose toxicity findings ([2]; rats, daily oral 100 mg/kg for 2 weeks): no evidence of SH-337 toxicity was observed | fold reduction of t1/2 vs. vonoprazan ([3]; human microsomes): 4.2 fold | half-life ([3]; human, human liver microsomes, read-out: Metabolic stability (t1/2) human): 81.4 min | IC50 [4]: 31.3 µM | Fold selectivity ([4]; Na+, K+-ATPase over H+, K+-ATPase): 925.6 fold | In vivo efficacy (% inhibition) ([5]; histamine-induced acid secretion in rats, 2 mg/kg, i.g. (Table 2)): 83% | Total acid output, histamine-stimulated model ([5]; i.g. 2 mg/kg): 0.31 ± 0.39^∗∗ 10^−4 mol | Inhibition (%), histamine-stimulated model ([5]; i.g. 2 mg/kg (Table 6)): 80% | Inhibition (%), histamine-stimulated model ([5]; i.g. 4 mg/kg): 93% | Total acid output, histamine-stimulated model ([5]; i.g. 4 mg/kg): 0.14 ± 0.48^∗∗ 10^−4 mol | Relative peak area, RLMs [6]: 45.7%
